# Source: PubChem BioAssay AID1963984 (Molecular Pharmacology Branch, DTP, NCI, 2024)
# Test system: 233499-124-R-J3-PDC spheroids with HUVEC/MSC, viability
# Test: Anticancer human tumor 233499-124-R-J3-PDC patient-derived colon adenocarcinoma cell line growth inhibition [PI3K]
# Conditions: for IC50: curve of first compound; for viability, T/C: stronger effect = lower value
# Procedure, shortened: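 Tumor cells grown as multi-cell spheroids with HUVEC endothelial cells and MSC fibroblast-like stroma were treated with targeted agents combined with inavolisib, alpelisib, duvelisib or copanlisib. Doses fell in half-log steps from near clinical Cmax, else from 10 microM. Viability was measured.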
# [1] = second compound 0.0316 µM, first compound 0.0316 µM
# [2] = second compound 0.0316 µM, first compound 0.1 µM
# [3] = second compound 0.0316 µM, first compound 0.316 µM
# [4] = second compound 0.0316 µM, first compound 1 µM
# [5] = second compound 0.0316 µM, first compound 3.16 µM
# [6] = second compound 0.0316 µM, first compound 10 µM
# [7] = second compound 0.1 µM, first compound 0.0316 µM
# [8] = second compound 0.1 µM, first compound 0.1 µM
# [9] = second compound 0.1 µM, first compound 0.316 µM
# [10] = second compound 0.1 µM, first compound 1 µM
# [11] = second compound 0.1 µM, first compound 3.16 µM
# [12] = second compound 0.1 µM, first compound 10 µM
# [13] = second compound 0.316 µM, first compound 0.0316 µM
# [14] = second compound 0.316 µM, first compound 0.1 µM
# [15] = second compound 0.316 µM, first compound 0.316 µM
# [16] = second compound 0.316 µM, first compound 1 µM
# [17] = second compound 0.316 µM, first compound 3.16 µM
# [18] = second compound 0.316 µM, first compound 10 µM
# [19] = second compound 1 µM, first compound 0.0316 µM
# [20] = second compound 1 µM, first compound 0.1 µM
# [21] = second compound 1 µM, first compound 0.316 µM
# [22] = second compound 1 µM, first compound 1 µM
# [23] = second compound 1 µM, first compound 3.16 µM
# [24] = second compound 1 µM, first compound 10 µM
# 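Also: spheroids exposed to agents for seven days before readout.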
# 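For viability, T/C in this document: percent viability relative to DMSO vehicle control taken as 100%.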
compound,measurement,setting,value
C=CC(=O)N1CCN(c2nc(=O)n(-c3c(C)ccnc3C(C)C)c3nc(-c4c(O)cccc4F)c(F)cc23)C(C)C1 (centres undefined) + COc1c(OCCCN2CCOCC2)ccc2c3n(c(=NC(=O)c4cnc(N)nc4)nc12)CCN3,IC50,second compound 0.00316 µM,> 10 µM
same,IC50,second compound 0.01 µM,> 10 µM
same,IC50,second compound 0.0316 µM,> 10 µM
same,IC50,second compound 0.1 µM,> 10 µM
same,IC50,second compound 0.316 µM,< 0.0316 µM
same,IC50,second compound 1 µM,< 0.0316 µM
same,"viability, T/C","second compound 0.00316 µM, first compound 0.0316 µM",98.1%
same,"viability, T/C","second compound 0.00316 µM, first compound 0.1 µM",103%
same,"viability, T/C","second compound 0.00316 µM, first compound 0.316 µM",87.8%
same,"viability, T/C","second compound 0.00316 µM, first compound 1 µM",97.7%
same,"viability, T/C","second compound 0.00316 µM, first compound 3.16 µM",88.4%
same,"viability, T/C","second compound 0.00316 µM, first compound 10 µM",119%
same,"viability, T/C","second compound 0.01 µM, first compound 0.0316 µM",109%
same,"viability, T/C","second compound 0.01 µM, first compound 0.1 µM",101%
same,"viability, T/C","second compound 0.01 µM, first compound 0.316 µM",85.5%
same,"viability, T/C","second compound 0.01 µM, first compound 1 µM",86.5%
same,"viability, T/C","second compound 0.01 µM, first compound 3.16 µM",84.6%
same,"viability, T/C","second compound 0.01 µM, first compound 10 µM",113%
same,"viability, T/C",[1],94.1%
same,"viability, T/C",[2],98.3%
same,"viability, T/C",[3],85.3%
same,"viability, T/C",[4],95.6%
same,"viability, T/C",[5],103%
same,"viability, T/C",[6],92.5%
same,"viability, T/C",[7],101%
same,"viability, T/C",[8],73.4%
same,"viability, T/C",[9],88%
same,"viability, T/C",[10],58.9%
same,"viability, T/C",[11],67.6%
same,"viability, T/C",[12],82%
same,"viability, T/C",[13],46.3%
same,"viability, T/C",[14],39.4%
same,"viability, T/C",[15],33.1%
same,"viability, T/C",[16],36.4%
same,"viability, T/C",[17],43.7%
same,"viability, T/C",[18],36%
same,"viability, T/C",[19],10%
same,"viability, T/C",[20],7.27%
same,"viability, T/C",[21],12.6%
same,"viability, T/C",[22],6.71%
same,"viability, T/C",[23],15.8%
same,"viability, T/C",[24],7.62%
CC(C)NCC(C(=O)N1CCN(c2ncnc3c2C(C)CC3O)CC1)c1ccc(Cl)cc1 (centres undefined) + CC(Nc1ncnc2nc[nH]c12)c1cc2cccc(Cl)c2c(=O)n1-c1ccccc1,IC50,second compound 0.0316 µM,> 10 µM
same,IC50,second compound 0.1 µM,> 10 µM
same,IC50,second compound 0.316 µM,> 10 µM
same,IC50,second compound 1 µM,> 10 µM
same,IC50,second compound 3.16 µM,> 10 µM
same,IC50,second compound 10 µM,> 10 µM
same,"viability, T/C",[1],86.1%
same,"viability, T/C",[2],100%
same,"viability, T/C",[3],94.8%
same,"viability, T/C",[4],94.8%
same,"viability, T/C",[5],77.1%
same,"viability, T/C",[6],74.5%
same,"viability, T/C",[7],93.3%
same,"viability, T/C",[8],96.7%
same,"viability, T/C",[9],77.6%
same,"viability, T/C",[10],83.8%
same,"viability, T/C",[11],110%
same,"viability, T/C",[12],87.4%
same,"viability, T/C",[13],95.7%
same,"viability, T/C",[14],102%
same,"viability, T/C",[15],95.8%
same,"viability, T/C",[16],87.8%
same,"viability, T/C",[17],86.9%
same,"viability, T/C",[18],71.9%
same,"viability, T/C",[19],91.1%
same,"viability, T/C",[20],88.3%
same,"viability, T/C",[21],88.1%
same,"viability, T/C",[22],106%
same,"viability, T/C",[23],82.1%
same,"viability, T/C",[24],65.2%
same,"viability, T/C","second compound 3.16 µM, first compound 0.0316 µM",91%
same,"viability, T/C","second compound 3.16 µM, first compound 0.1 µM",93.6%
same,"viability, T/C","second compound 3.16 µM, first compound 0.316 µM",96.9%
same,"viability, T/C","second compound 3.16 µM, first compound 1 µM",85.7%
same,"viability, T/C","second compound 3.16 µM, first compound 3.16 µM",81.1%
same,"viability, T/C","second compound 3.16 µM, first compound 10 µM",77.5%
same,"viability, T/C","second compound 10 µM, first compound 0.0316 µM",78%
same,"viability, T/C","second compound 10 µM, first compound 0.1 µM",89.9%
same,"viability, T/C","second compound 10 µM, first compound 0.316 µM",87.4%
same,"viability, T/C","second compound 10 µM, first compound 1 µM",68.8%
same,"viability, T/C","second compound 10 µM, first compound 3.16 µM",99.5%
same,"viability, T/C","second compound 10 µM, first compound 10 µM",88%
